The numbers were not newly measured in patent US4407746A, “Cyclohexyl and phenyl substituted enkephalins” (G. D. Searle & Co., priority 1981, dated 1983), which cites them from elsewhere.

The subject of one data set is rat. Particulars: injected directly into the brain of the rat; Belluzi et al. 1976.
The subject of data set [1] is brain opiate receptor sites. Particulars: partially purified brain opiate receptor sites; Bradberry et al. 1976.

For methionine enkephalin, the analgesic activity entry in the data set with rat is “weak, fleeting analgesic activity”. Also, the “binding to brain opiate receptor sites” value in data set [1] is on record as “binds sterospecifically”.
